# In BindingDB's records for doi:10.7270/Q2F769WQ (University of Pittsburgh, 2007):
# Target: T1, Dual specificity protein phosphatase 1 (Homo sapiens, UniProt P28562)
# T1 sequence (P28562 whole entry): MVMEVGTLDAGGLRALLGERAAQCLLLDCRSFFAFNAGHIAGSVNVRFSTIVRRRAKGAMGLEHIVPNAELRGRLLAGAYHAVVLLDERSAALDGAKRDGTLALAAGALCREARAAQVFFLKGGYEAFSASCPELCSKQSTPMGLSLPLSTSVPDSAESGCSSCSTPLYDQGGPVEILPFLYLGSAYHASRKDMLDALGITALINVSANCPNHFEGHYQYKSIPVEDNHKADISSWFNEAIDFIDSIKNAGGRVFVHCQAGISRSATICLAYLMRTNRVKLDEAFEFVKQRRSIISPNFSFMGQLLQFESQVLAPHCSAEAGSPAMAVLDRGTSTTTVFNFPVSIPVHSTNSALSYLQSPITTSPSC
# Assay: MKP-1 phosphatase inhibitor potency, dose response, biochemical, in vitro, confirmation (AID 551)
# Details: pH 7; 22 °C
row,SMILES,IC50
1,"O=C1Nc2ccccc2SC(c2ccccc2)C1O (centres undefined) [3-hydroxy-2-phenyl-2,3-dihydro-1,5-benzothiazepin-4(5H)-one]",20.1 µM
2,"CCOC(=O)CC(=O)CSc1nnc2sc3ccccc3n12 [3-keto-4-([1,2,4]triazolo[3,4-b][1,3]benzothiazol-1-ylthio)butyric acid ethyl ester]",> 50 µM
3,"CC1CCCCC1NC(=O)CCn1c(=O)oc2ccccc21 (centres undefined) [3-(2-keto-1,3-benzoxazol-3-yl)-N-(2-methylcyclohexyl)propionamide]",> 50 µM
4,O=C(c1ccc(-c2ccccc2)cc1)N1CCN(Cc2ccccn2)CC1 [(4-phenylphenyl)-[4-(2-pyridinylmethyl)-1-piperazinyl]methanone],> 50 µM
5,CC1=C(/C=C/C(C)=C/C=C/C(C)=C/C(=O)O)C(C)(C)CCC1 [ALL-TRANS-RETINOIC ACID],27.1 µM
6,"CCn1nc(-c2cccs2)nc2c(=O)n(C)c(=O)nc1-2 [1-ethyl-6-methyl-3-thiophen-2-yl-pyrimido[5,4-e][1,2,4]triazine-5,7-dione]",0.158 µM
7,"Cc1cccc(N2CCN(S(=O)(=O)c3ccc4c(c3)CCN4C(=O)CCC(=O)O)CC2)c1C [4-(5-{[4-(2,3-dimethylphenyl)piperazin-1-yl]sulfonyl}-2,3-dihydro-1H-indol-1-yl)-4-oxobutanoic acid]",> 50 µM
8,"O=c1c2ccc[nH]c-2c(Nc2ccc(S(=O)(=O)N3CCCCCC3)cc2)n1Cc1ccccc1 [7-[[4-(azepan-1-ylsulfonyl)phenyl]amino]-6-(phenylmethyl)-7H-pyrrolo[3,4-b]pyridin-5-one]",> 50 µM
9,O=C(c1n[nH]c(=O)c2ccccc12)N1CCN(C2c3ccccc3-c3ccccc32)CC1 [4-[[4-(9H-fluoren-9-yl)-1-piperazinyl]-oxomethyl]-2H-phthalazin-1-one],> 50 µM
10,"CN1Cc2cc(C(=O)c3cc(Cl)cc(CSc4ncccn4)c3O)cnc2NC1=O [6-[5-chloranyl-2-oxidanyl-3-(pyrimidin-2-ylsulfanylmethyl)phenyl]carbonyl-3-methyl-1,4-dihydropyrido[2,3-d]pyrimidin-2-one]",> 50 µM
11,O=C(c1ccc2c(=O)n(C3CCCC3)c(=S)[nH]c2c1)N1CCN(C2CCCCC2)CC1 [7-[(4-cyclohexyl-1-piperazinyl)-oxomethyl]-3-cyclopentyl-2-sulfanylidene-1H-quinazolin-4-one],> 50 µM
12,"CC(C)(C)C(=O)c1sc(Nc2ccccc2)nc1N [1-(4-amino-2-anilino-1,3-thiazol-5-yl)-2,2-dimethyl-1-propanone]",> 50 µM
13,O=C(Nc1ccc2nc(-c3ccco3)c(-c3ccco3)nc2c1)N1CCCCCC1,12.3 µM
14,CCOc1cc(/C=C(/C#N)c2ccc(F)cc2)ccc1OCc1ccc(C(=O)O)o1 [5-[[4-[(E)-2-cyano-2-(4-fluorophenyl)ethenyl]-2-ethoxyphenoxy]methyl]furan-2-carboxylic acid],36.1 µM
15,"O=C1CC(c2ccccc2)c2cc(O)ccc2O1 (centres undefined) [6-hydroxy-4-phenyl-3,4-dihydro-2H-1-benzopyran-2-one]",49.2 µM
16,Cc1ccc(S(=O)(=O)NCC(C)NS(=O)(=O)c2ccc(C)cc2)cc1 (centres undefined) [4-methyl-N-[2-(tosylamino)propyl]benzenesulfonamide],> 50 µM
17,CCCCCC#CCC#CCC#CCC#CCCCC(=O)O,6.53 µM

# Other lines, results leading:
row,IC50,SMILES
1,39 µM,Cc1ccc(-c2csc(NC(=O)c3ccno3)n2)cc1 [MLS000081820]
2,> 50 µM,Nc1ccc2ncccc2c1N [SMR000015817]
3,> 50 µM,COc1ccc(-n2nnnc2SCC(=O)Nc2ccc3c(c2)OCCO3)c(OC)c1 [MLS000071837]
4,> 50 µM,Cn1c(=O)oc2cc(S(=O)(=O)NCCC(=O)NC3CCCC3)ccc21 [MLS000093068]
5,38.2 µM,Cc1cc(NC(=O)c2ccc(S(=O)(=O)N3CCCC3)cc2)nc2c1c(=O)oc1ccccc12 [MLS000091355]
6,> 50 µM,O=C1C(=C2C(=O)c3ccccc3C2=O)Nc2ccccc21 [MLS000071738]
7,23.5 µM,CCCCn1c(NC(=O)c2ccccc2)c(C#N)c2nc3ccccc3nc21 [SMR000060333]
